Structures are written as SMILES. Read-outs that look alike come from different tables or passages of the source.

The target in test [1] is T1, pY641-STAT6 in PBMC (Homo sapiens, UniProt P42226).
T1 construct: Cryopreserved Peripheral Blood Mononuclear Cells (PBMC) are from AllCells; host or cells: cryopreserved PBMC
T1 sequence (P42226 1-847): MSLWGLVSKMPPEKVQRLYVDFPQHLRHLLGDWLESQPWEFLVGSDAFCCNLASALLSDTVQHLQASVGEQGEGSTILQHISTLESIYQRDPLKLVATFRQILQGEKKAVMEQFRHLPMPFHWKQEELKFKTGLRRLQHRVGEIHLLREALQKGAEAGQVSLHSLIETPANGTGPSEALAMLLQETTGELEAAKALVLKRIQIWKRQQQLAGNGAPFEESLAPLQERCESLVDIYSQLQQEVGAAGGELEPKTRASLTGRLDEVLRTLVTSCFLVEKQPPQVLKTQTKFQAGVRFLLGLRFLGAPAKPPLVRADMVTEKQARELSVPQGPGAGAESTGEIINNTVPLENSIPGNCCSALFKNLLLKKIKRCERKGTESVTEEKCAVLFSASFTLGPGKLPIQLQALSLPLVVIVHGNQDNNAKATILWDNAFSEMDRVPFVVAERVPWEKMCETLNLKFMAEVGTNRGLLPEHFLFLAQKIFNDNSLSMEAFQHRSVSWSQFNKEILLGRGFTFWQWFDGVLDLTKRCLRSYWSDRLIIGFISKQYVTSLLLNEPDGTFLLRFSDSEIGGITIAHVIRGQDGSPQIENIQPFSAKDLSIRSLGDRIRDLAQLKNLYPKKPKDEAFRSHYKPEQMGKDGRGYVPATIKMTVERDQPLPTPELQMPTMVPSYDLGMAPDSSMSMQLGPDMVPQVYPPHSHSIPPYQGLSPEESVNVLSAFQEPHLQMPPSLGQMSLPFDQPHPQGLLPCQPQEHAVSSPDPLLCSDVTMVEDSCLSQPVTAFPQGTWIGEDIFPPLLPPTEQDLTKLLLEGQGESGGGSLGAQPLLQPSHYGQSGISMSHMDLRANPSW
Description: MSD-pSTAT-PBMC Assay (pSTAT6, IL-4 stimulated). The format is cell-based. The note with it: compound 3 hrs, then 1 ng/mL IL-4 for 10 min, Table 115. An outline of the steps: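 Cells are preincubated with compound for 3 hrs, then stimulated for 10 min, IL-4 at 1 ng/mL driving STAT6 phosphorylation and IL-6 at 10 ng/mL driving STAT3. Phospho-STAT in lysates is quantified by MSD immunoassay, and IC50 is fitted after subtracting unstimulated wells.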

In test [2] the target is T2, pY705-STAT3 in PBMC (Homo sapiens, UniProt P40763).
T2 construct: Cryopreserved Peripheral Blood Mononuclear Cells (PBMC) are from AllCells; host or cells: cryopreserved PBMC
Description: MSD-pSTAT-PBMC Assay (pSTAT3, IL-6 stimulated). The format is cell-based. The note with it: PBMC, compound 3 hrs, then 10 ng/mL IL-6 for 10 min; Table 115; read-out: STAT3. An outline of the steps:
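PBMC (human, cryopreserved, overnight recovery) + cpd 3 hrs → IL-6 10 ng/mL (STAT3) or IL-4 1 ng/mL (STAT6) ×10 min → lysis with protease/phosphatase inhibitors → MSD capture/phospho detection. IC50, variable slope, DMSO-normalized.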

T2 sequence (P40763 whole entry): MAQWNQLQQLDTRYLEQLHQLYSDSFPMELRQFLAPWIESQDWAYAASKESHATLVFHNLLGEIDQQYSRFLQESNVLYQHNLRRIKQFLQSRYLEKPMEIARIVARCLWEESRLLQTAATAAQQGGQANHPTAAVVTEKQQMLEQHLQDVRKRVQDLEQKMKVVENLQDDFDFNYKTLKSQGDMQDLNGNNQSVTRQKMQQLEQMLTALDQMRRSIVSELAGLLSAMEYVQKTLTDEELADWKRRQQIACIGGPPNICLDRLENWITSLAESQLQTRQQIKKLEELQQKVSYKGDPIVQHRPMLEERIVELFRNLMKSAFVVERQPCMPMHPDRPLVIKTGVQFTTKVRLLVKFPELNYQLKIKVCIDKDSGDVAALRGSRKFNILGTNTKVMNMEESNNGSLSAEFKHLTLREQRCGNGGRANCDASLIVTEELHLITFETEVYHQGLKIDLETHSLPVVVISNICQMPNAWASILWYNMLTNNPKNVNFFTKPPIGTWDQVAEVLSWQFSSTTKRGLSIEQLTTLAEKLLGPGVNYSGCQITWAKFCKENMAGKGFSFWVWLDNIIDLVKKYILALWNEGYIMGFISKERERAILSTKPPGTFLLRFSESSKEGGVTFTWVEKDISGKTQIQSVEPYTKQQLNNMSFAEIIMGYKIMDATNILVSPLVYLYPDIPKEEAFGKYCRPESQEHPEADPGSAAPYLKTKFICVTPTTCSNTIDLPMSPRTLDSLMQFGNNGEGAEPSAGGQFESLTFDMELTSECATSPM

As for `CC(C)COC(=O)[C@H](C)NP(=O)(Cc1ccc2ccc(C(=O)N[C@H]3CCCC[C@H]4CC[C@@H](C(=O)N5CC(c6ccccc6)CC56CC6)N4C3=O)cc2c1)Oc1ccccc1` (stereo partly drawn) [Compound 410, isobutyl (((7-(((3S,6S,10aS)-5-oxo-3-(6-phenyl-4-azaspiro[2.4]heptane-4-carbonyl)decahydropyrrolo[1,2-a]azocin-6-yl)carbamoyl)naphthalen-2-yl)methyl)(phenoxy)phosphoryl)-L-alaninate], the IC50 is more than 3000 nM in test [1] (STAT6, PBMC) and more than 3000 nM in test [2].
In the case of `CCCOC(=O)[C@H](C)NP(=O)(Oc1ccccc1)C(F)c1ccc2sc(C(=O)N[C@H]3CCC[C@H]4CC[C@@H](C(=O)N5CC(c6cccnc6)C5)N4C3=O)cc2c1` (stereo partly drawn) [Compound 415, propyl ((fluoro(2-(((3S,6S,9aS)-5-oxo-3-(3-(pyridin-3-yl)azetidine-1-carbonyl)octahydro-1H-pyrrolo[1,2-a]azepin-6-yl)carbamoyl)benzo [b]thiophen-5-yl)methyl)(phenoxy)phosphoryl)-L-alaninate], the IC50 in test [1] (STAT6, PBMC) is 1000 to 3000 nM; in test [2] it was less than 100 nM.
The corresponding values for `CCCOC(=O)[C@H](C)NP(=O)(Oc1ccccc1)C(F)(F)c1ccc2ccc(C(=O)N[C@H]3CCCC[C@H]4CC[C@@H](C(=O)N5C[C@H](c6cc[nH]c(=O)c6)CC56CC6)N4C3=O)cc2c1` (stereo partly drawn) [Compound 419, propyl ((difluoro(7-(((3S,6S,10aS)-5-oxo-3-((S)-6-(2-oxo-1,2-dihydropyridin-4-yl)-4-azaspiro[2.4]heptane-4-carbonyl)decahydropyrrolo[1,2-a]azocin-6-yl)carbamoyl)naphthalen-2-yl)methyl)(phenoxy)phosphoryl)-L-alaninate] are 100 to 1000 nM and more than 3000 nM.
The corresponding values for `CCCOC(=O)[C@H](C)NP(=O)(Cc1ccc2ccc(C(=O)N[C@H]3CCCC[C@H]4CC[C@@H](C(=O)N5CC(c6ccccc6)CC56CC6)N4C3=O)cc2c1)Oc1ccccc1` (stereo partly drawn) [Compound 421, propyl (((7-(((3S,6S,10aS)-5-oxo-3-(6-phenyl-4-azaspiro[2.4]heptane-4-carbonyl)decahydropyrrolo[1,2-a]azocin-6-yl)carbamoyl)naphthalen-2-yl)methyl)(phenoxy)phosphoryl)-L-alaninate] are 100 to 1000 nM and more than 3000 nM.
In the case of `CCCOC(=O)[C@H](C)NP(=O)(Oc1ccccc1)[C@H](F)c1ccc2sc(C(=O)N[C@H]3CCCC[C@H]4CC[C@@H](C(=O)N5C[C@H](c6ccccc6)[C@@H](C#N)C56CC6)N4C3=O)cc2c1` (stereo partly drawn) [Compound 485, propyl (((S)-(2-(((3S,6S,10aS)-3-((6S,7R)-7-cyano-6-phenyl-4-azaspiro[2.4]heptane-4-carbonyl)-5-oxodecahydropyrrolo [1,2-a]azocin-6-yl)carbamoyl)benzo [b]thiophen-5-yl)fluoromethyl) (phenoxy)phosphoryl)-L-alaninate], the IC50 in test [1] (STAT6, PBMC) is less than 100 nM; in test [2], more than 3000 nM.
Take `CCCC(=O)SCCOP(=O)(OCCSC(=O)CCC)C(F)(F)c1ccc2sc(C(=O)N[C@H]3CCC[C@H]4CC[C@@H](C(=O)N5CC(c6ncccn6)C5)N4C3=O)cc2c1` [Compound 940, S,S′-((((difluoro(2-(((3S,6S,9aS)-5-oxo-3-(3-(pyrimidin-2-yl)azetidine-1-carbonyl)octahydro-1H-pyrrolo[1,2-a]azepin-6-yl)carbamoyl)benzo [b]thiophen-5-yl)methyl)phosphoryl)bis(oxy))bis(ethane-2,1-diyl)) dibutanethioate]: the IC50 in test [1] (PBMC, read-out: STAT6) is 100 to 1000 nM; in test [2] it was less than 100 nM.
Regarding `CCCOC(=O)[C@H](C)NP(=O)(Oc1ccccc1)[C@@H](F)c1ccc2sc(C(=O)N[C@H]3CCC[C@H]4CC[C@@H](C(=O)N5CC(c6cnccc6N(C)C)C5)N4C3=O)cc2c1` (stereo partly drawn) [Compound 942, propyl (((R)-(2-(((3S,6S, 9aS)-3-(3-(4-(dimethylamino)pyridin-3-yl)azetidine-1-carbonyl)-5-oxooctahydro-1H-pyrrolo[1,2-a]azepin-6-yl)carbamoyl)benzo [b]thiophen-5-yl)fluoromethyl) (phenoxy)phosphoryl)-L-alaninate], the IC50 in test [1] (STAT6, PBMC) is more than 3000 nM; in test [2], 100 to 1000 nM.

(Values after patent publication US20250215029A1 (Recludix Pharma, Inc., priority 2022, published 2025).)
